Key:
[1] = molecular target: T1, CurA (Escherichia coli, UniProt P76113); test: ligand fluorescence in one-pot enzymatic synthesis; format: binding; conditions: 25 uM CurA without NADPH; BDMC formed in situ by TAL, PCL, MatB and CUS
T1 construct: N-terminal His6-tag; expressed in E. coli BL21 Gold (DE3) pLysS; apo form
T1 sequence (P76113 1-345): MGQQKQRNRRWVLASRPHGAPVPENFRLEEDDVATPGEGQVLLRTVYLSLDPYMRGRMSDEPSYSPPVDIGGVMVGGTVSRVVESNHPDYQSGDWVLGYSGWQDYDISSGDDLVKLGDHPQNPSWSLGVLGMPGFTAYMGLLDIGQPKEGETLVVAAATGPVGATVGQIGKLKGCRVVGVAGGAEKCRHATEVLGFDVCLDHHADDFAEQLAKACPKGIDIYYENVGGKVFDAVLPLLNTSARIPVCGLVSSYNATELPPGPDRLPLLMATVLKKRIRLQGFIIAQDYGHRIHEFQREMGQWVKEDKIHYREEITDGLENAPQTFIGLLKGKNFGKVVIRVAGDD

[2] = molecular target: T1, CurA; test: ligand fluorescence (excitation […] nm, emission […] nm); format: binding; conditions: apo-CurA without NADPH; titration 0-100 uM curcumin with 25 uM CurA; also reduced as substrate when NADPH is added
[3] = molecular target: T2, TAL (Rhodotorula glutinis, UniProt U5TV35); test: individual enzyme activity assay; format: biochemical
T2 construct: synthetic gene codon optimised for E. coli; expressed in E. coli BL21-Gold (DE3)
T2 sequence (U5TV35 1-693): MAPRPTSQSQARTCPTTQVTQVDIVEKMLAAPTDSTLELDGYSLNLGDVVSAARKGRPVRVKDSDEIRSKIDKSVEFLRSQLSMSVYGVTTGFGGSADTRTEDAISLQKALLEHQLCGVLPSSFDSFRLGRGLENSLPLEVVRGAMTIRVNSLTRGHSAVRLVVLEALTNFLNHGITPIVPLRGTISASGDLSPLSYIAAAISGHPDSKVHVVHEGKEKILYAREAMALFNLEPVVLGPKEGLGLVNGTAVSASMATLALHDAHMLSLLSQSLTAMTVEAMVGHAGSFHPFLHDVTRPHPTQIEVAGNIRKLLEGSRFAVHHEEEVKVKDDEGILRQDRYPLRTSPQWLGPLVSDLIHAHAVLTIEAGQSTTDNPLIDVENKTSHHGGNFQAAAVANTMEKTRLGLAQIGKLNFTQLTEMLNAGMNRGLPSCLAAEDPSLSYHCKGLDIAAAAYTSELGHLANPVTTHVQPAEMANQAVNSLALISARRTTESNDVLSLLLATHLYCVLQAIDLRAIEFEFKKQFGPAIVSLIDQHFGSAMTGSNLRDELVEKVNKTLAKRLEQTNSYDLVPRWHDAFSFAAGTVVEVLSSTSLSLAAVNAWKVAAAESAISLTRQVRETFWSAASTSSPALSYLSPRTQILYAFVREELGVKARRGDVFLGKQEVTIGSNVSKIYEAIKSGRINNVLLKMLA

Structure (SMILES): O=C(/C=C/c1ccc(O)cc1)CC(=O)/C=C/c1ccc(O)cc1 [BDMC]
- ligand fluorescence in one-pot enzymatic synthesis [1]: used in the absence of NADPH to bind to BDMC/curcumin

Structure (SMILES): COc1cc(/C=C/C(=O)CC(=O)/C=C/c2ccc(O)c(OC)c2)ccc1O [curcumin]
- ligand fluorescence (excitation 425 nm, emission 520 nm) [2]: CurA could bind curcumin in the absence of NADPH

Structure (SMILES): N[C@@H](Cc1ccc(O)cc1)C(=O)O [tyrosine]
- individual enzyme activity assay [3]: The activity of TAL and PCL enzymes was also assayed individually

From publication doi:10.1101/202341v1, “A cell-free synthetic biochemistry platform for raspberry ketone production” (biorxiv, 2017)
